One data set is described as follows: Solution stability test. The note with it: light tester, versus light-shielded control.
A further data set can be described thus: Solubility test. The class given is physicochemical. The settings on record: aqueous phosphate solution with 150 mM NaCl, pH around 7.5. The protocol: 150 mg of each of the compounds of Examples 1 and 2 and Comparative Example 1 was dissolved in 5 mL of an aqueous phosphate solution containing sodium chloride (containing 150 mM NaCl and 10 mM […]). After the resulting mixture was stirred for 30 minutes while measuring the pH of the mixture, a 0.5 mL portion of the resulting suspension was taken and filtered through a syringe filter. A 100 μL portion of the obtained filtrate was transferred into a 10-mL volumetric flask and diluted to 10 mL with an aqueous solution of 50% MeCN, whereby a sample solution was prepared. To the suspension, concentrated HCl was added dropwise to adjust the pH thereof to around 7.5.
Measurement was performed using HPLC under the following conditions.
HPLC system: Water's Alliance
Column: XTerra MS C18 3.5 μm, Column Size: 4.6×100 mm
Column Temp: 40° C., Flow Rate: 1.2 mL/min
Solvent A: 0.1% phosphoric acid in water, Solvent B: 0.1% phosphoric acid in MeCN

The nature of data set [1]: Moisture absorption test (hygroscopicity). The class given is physicochemical. The note with it: 25° C.; for Hygroscopicity (in words): measurement humidity 10 to 95% RH; for Hygroscopicity, change in weight: relative humidity 10→80%. On the procedure:
A sample was weighed in a glass sample cup, and the weight thereof was measured under the following conditions.
Measuring device: DVS Advantage, manufactured by Surface Measurement System Ltd.
Measurement temperature: 25° C., Minimum exposure time: 15 min, Maximum exposure time: 120 min, Step transition condition: within 0.006 wt. %
The appearance of the sample at the time of completion of the measurement was confirmed.

Data set [2] deals with TNF-α production in human monocytic cell line U937 stimulated with endotoxin. Kind of data set: Suppressive effect on production of TNF-α in cells stimulated with endotoxin (in vitro). The note with it: concentration of test compound: 100 nM, LPS 30 ng/ml, 4.5 hours. It counts as cell-based. On the procedure: The rate of suppression of TNF-α production when human monocytic cell line U937 was stimulated with endotoxin was determined for the compound of the present invention. Specifically, to RPMI-1640 medium containing 10% (volume %) of inactivated newborn bovine serum, 12-O-tetradecanoylphorbol-13-acetate was added to give a final concentration of 30 ng/ml. U937 cells were suspended in the medium and plated into a 96-well culture plate (Sumilon) so that the number of cells per well/volume was 2×10^4/0.1 mL, and the culture plate was then incubated for 3 days at 37° C. in a carbon dioxide incubator with 5% CO2 and 100% humidity. After completion of the incubation, the culture supernatant was removed. […] By using a 384-well half area black plate (Greiner) and an HTRF quantitative determination kit manufactured by Cisbio International, the concentration of TNF-α in the culture supernatant was measured as time-resolved fluorescence by Discovery (Packard). From the measured value in the absence of LPS (X), the measured value in the absence of the compound of the present invention (Y), and the measured value in the presence of the compound of the present invention (Z), the rate of suppression of TNF-α production was obtained according to the following calculation formula [I]. […]

The subject of a further data set is blood TNF-α level. Put plainly: Suppressive effect on elevation of blood TNF-α level (in vivo). Set-up: species or system Sprague Dawley rats. The note with it: test compound 0.3 mg/kg, femoral vein, 0.5 hours before LPS; rat plasma 2 hours after LPS. On the procedure:
The suppressive effect of the compound of the present invention on the elevation of blood TNF-α level was studied. A test for the elevation of blood TNF-α level was performed in accordance with the method of Parant et al. described in Journal of Leukocyte Biology, Vol. 47, page 164 (1990).
In the test, 3 to 4 male Sprague Dawley rats (8 to 9 weeks of age) were used for each group.
At 4 hours before the administration of LPS, muramyl dipeptide dissolved in physiological saline (1 mg/mL) was administered to each rat through the tail vein at a dose of 1 mL/kg. At 0.5 hours before the administration of LPS, the rats were anaesthetized with pentobarbital (40 mg/kg), and the compound of the present invention dissolved in a 5% dimethyl acetamide/95% polyethylene glycol 400 solution was administered to each rat through the right femoral vein at a dose of 1 mL/kg. To the control group, a 5% dimethyl acetamide/95% polyethylene glycol 400 solution was administered at a dose of 1 mL/kg. […] The plasma TNF-α level was determined using a TNF-α quantitative determination kit (BioSource International, Inc.). From the blood TNF-α level in the control group (X) and the blood TNF-α level in the group administered with the compound of the present invention (Y), the rate of suppression of TNF-α production was calculated according to the following calculation formula [II]. […]

For data set [3] the following is noted: pH 7.
Protocol: (§1) The above flasks as such and the flasks covered with aluminum foil for light shielding as controls were placed in a light tester at 25° C. After one day, each solution was diluted to 10 mL with 50% MeCN. The concentration of each solution was calculated by performing HPLC under the same conditions as used in the above-described solubility test, and the change in concentration from the control was calculated.

“Also recorded” adds a separate entry of the source. Where two headings read alike, the source gives them in different places.

Protocol for Solution stability test: as §1

`CCOC(=O)C1=CC2(CC[C@H]1S(=O)(=O)Nc1ccc(F)cc1Cl)O[C@H](CO)[C@@H](CO)O2` (single isomer, unassigned) [Comparative Example, reference compound]: the “Solution stability (25° C., 1 day)” value in the data set “Solution stability test” (McIlvaine buffer pH 8) came out at 99.4%. Besides, the “Solubility (PBS pH 7.5)” value in the data set “Solubility test” is given as “low solubility”. For the same compound, in data set [1], the “Hygroscopicity (in words)” value was “showed high hygroscopicity at every measurement humidity; also recorded: With hygroscopicity” and the “Hygroscopicity, change in weight” value is given as 2.6% (relative.
For the compound `CCOC(=O)C1=CC2(CC[C@H]1S(=O)(=O)[N-]c1ccc(F)cc1Cl)O[C@H](CO)[C@@H](CO)O2.[K+]` [Example 1, Potassium(2-chloro-4-fluorophenyl){[(2R,3R,8R)-7-(ethoxycarbonyl)-2,3-bis(hydroxymethyl)-1,4-dioxaspiro[4.5]deca-6-en-8-yl]sulfonyl}azanide], the “Solution stability (25° C., 1 day)” value in “Solution stability test” (PBS pH 6) turned out to be 99.9%. Moreover, the “Solubility (PBS pH 7.5)” value in “Solubility test” is reported as 13.8 mg/ml. In addition, in data set [1], the “Hygroscopicity (in words)” value is “did not show hygroscopicity” and the “Hygroscopicity, change in weight” value was <0.1% (relative. Besides, the “Rate of suppression of TNF-α production” value in data set [2] is 89%. The “Rate of suppression of TNF-α production” value in the data set with blood TNF-α level worked out at 96%.
As to `CCOC(=O)C1=CC2(CC[C@H]1S(=O)(=O)[N-]c1ccc(F)cc1Br)O[C@H](CO)[C@@H](CO)O2.[K+]` [Example 2, Potassium(2-bromo-4-fluorophenyl){[(2R,3R,8R)-7-(ethoxycarbonyl)-2,3-bis(hydroxymethyl)-1,4-dioxaspiro[4.5]deca-6-en-8-yl]sulfonyl}azanide], the “Solubility (PBS pH 7.5)” value in “Solubility test” was 9.6 mg/ml. In addition, in data set [1], the “Hygroscopicity (in words)” value was “did not show hygroscopicity” and the “Hygroscopicity, change in weight” value is reported as <0.1% (relative. Further, the “Rate of suppression of TNF-α production” value with blood TNF-α level worked out at 81%. Further, the “Solution stability (25° C., 1 day)” value in data set [3] amounted to 99.4%.

The values are drawn from US8933117B2, “Crystals of substituted cycloalkene derivatives” (Daiichi Sankyo Company, Limited, priority 2010, dated 2015).
